Experimental data published in PubChem BioAssay AID1963867 (Molecular Pharmacology Branch, DTP, NCI, 2024).

Tested on: KRAS-mutant PDC tumor spheroid with HUVEC/MSC, viability
Assay: Anticancer human tumor 327498-153-R-J2-PDC patient-derived uterine carcinosarcoma cell line growth inhibition [KRAS2]
Settings: for IC50: curve of first compound; for viability, T/C: stronger effect = lower value
In short: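 Combination screen of spheroid viability in tumor-cell co-cultures with endothelial (HUVEC) and mesenchymal stem cell stroma. Each agent was tested in half-log dilutions, topping at clinical Cmax or at 10 microM without a known Cmax.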

[1] = second compound 0.1 µM, first compound 0.0316 µM
[2] = second compound 0.1 µM, first compound 0.1 µM
[3] = second compound 0.1 µM, first compound 0.316 µM
[4] = second compound 0.1 µM, first compound 1 µM
[5] = second compound 0.1 µM, first compound 3.16 µM
[6] = second compound 0.1 µM, first compound 10 µM
[7] = second compound 0.316 µM, first compound 0.0316 µM
[8] = second compound 0.316 µM, first compound 0.1 µM
[9] = second compound 0.316 µM, first compound 0.316 µM
[10] = second compound 0.316 µM, first compound 1 µM
[11] = second compound 0.316 µM, first compound 3.16 µM
[12] = second compound 0.316 µM, first compound 10 µM
[13] = second compound 1 µM, first compound 0.0316 µM
[14] = second compound 1 µM, first compound 0.1 µM
[15] = second compound 1 µM, first compound 0.316 µM
[16] = second compound 1 µM, first compound 1 µM
[17] = second compound 1 µM, first compound 3.16 µM
[18] = second compound 1 µM, first compound 10 µM
[19] = second compound 3.16 µM, first compound 0.0316 µM
[20] = second compound 3.16 µM, first compound 0.1 µM
[21] = second compound 3.16 µM, first compound 0.316 µM
[22] = second compound 3.16 µM, first compound 1 µM
[23] = second compound 3.16 µM, first compound 3.16 µM
[24] = second compound 3.16 µM, first compound 10 µM
[25] = second compound 10 µM, first compound 0.0316 µM
[26] = second compound 10 µM, first compound 0.1 µM
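Also: spheroids exposed to agents for seven days before reading.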
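For viability, T/C in this document: 100% = DMSO vehicle wells so lower means fewer viable cells.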

COc1cc2nccc(Oc3ccc(NC(=O)C4(C(=O)Nc5ccc(F)cc5)CC4)cc3)c2cc1OC + C=CC(=O)N1CCN(c2nc(OCC3CCCN3C)nc3c2CCN(c2cccc4cccc(C)c24)C3)CC1CC#N
IC50 (second compound 0.0316 µM): 1290 nM | IC50 (second compound 0.1 µM): < 31.6 nM | IC50 (second compound 0.316 µM): < 31.6 nM | IC50 (second compound 1 µM): < 31.6 nM | IC50 (second compound 3.16 µM): < 31.6 nM | viability, T/C (second compound 0.0316 µM, first compound 0.0316 µM): 60.9% | viability, T/C (second compound 0.0316 µM, first compound 0.1 µM): 55.4% | viability, T/C (second compound 0.0316 µM, first compound 0.316 µM): 55.6% | viability, T/C (second compound 0.0316 µM, first compound 1 µM): 63.9% | viability, T/C (second compound 0.0316 µM, first compound 3.16 µM): 18.4% | viability, T/C (second compound 0.0316 µM, first compound 10 µM): 0.28% | viability, T/C [1]: 48.4% | viability, T/C [2]: 50% | viability, T/C [3]: 50.4% | viability, T/C [4]: 47.8% | viability, T/C [5]: 17.3% | viability, T/C [6]: 0.84% | viability, T/C [7]: 45% | viability, T/C [8]: 48.5% | viability, T/C [9]: 52.1% | viability, T/C [10]: 45% | viability, T/C [11]: 15% | viability, T/C [12]: 0.62% | viability, T/C [13]: 44.1% | viability, T/C [14]: 40.3% | viability, T/C [15]: 39.3% | viability, T/C [16]: 43.3% | viability, T/C [17]: 11.1% | viability, T/C [18]: 0.15% | viability, T/C [19]: 0.22% | viability, T/C [20]: 0.17% | viability, T/C [21]: 0.17% | viability, T/C [22]: 0.16% | viability, T/C [23]: 0.13% | viability, T/C [24]: 0.24%

CC(C)NCC(C(=O)N1CCN(c2ncnc3c2C(C)CC3O)CC1)c1ccc(Cl)cc1 (stereo not given) + CNCc1ccccc1-c1csc(C(C)Nc2nc(C)nc3cc(OC)c(OC)cc23)c1
IC50 (second compound 0.1 µM): 216 nM | IC50 (second compound 0.316 µM): 147 nM | IC50 (second compound 1 µM): 115 nM | IC50 (second compound 3.16 µM): < 31.6 nM | IC50 (second compound 10 µM): < 31.6 nM | viability, T/C [1]: 77.9% | viability, T/C [2]: 55.6% | viability, T/C [3]: 45% | viability, T/C [4]: 34.7% | viability, T/C [5]: 26.4% | viability, T/C [6]: 15% | viability, T/C [7]: 63.6% | viability, T/C [8]: 55.1% | viability, T/C [9]: 40.9% | viability, T/C [10]: 27.5% | viability, T/C [11]: 22.1% | viability, T/C [12]: 14.6% | viability, T/C [13]: 66.3% | viability, T/C [14]: 52.5% | viability, T/C [15]: 36.1% | viability, T/C [16]: 24.6% | viability, T/C [17]: 18.2% | viability, T/C [18]: 11.5% | viability, T/C [19]: 0.12% | viability, T/C [20]: 0.09% | viability, T/C [21]: 0.09% | viability, T/C [22]: 0.07% | viability, T/C [23]: 0.3% | viability, T/C [24]: 0.16% | viability, T/C [25]: 0.23% | viability, T/C [26]: 0.44% | viability, T/C (second compound 10 µM, first compound 0.316 µM): 0.16% | viability, T/C (second compound 10 µM, first compound 1 µM): 0.16% | viability, T/C (second compound 10 µM, first compound 3.16 µM): 0.16% | viability, T/C (second compound 10 µM, first compound 10 µM): 0.23%

CN(C)C/C=C/C(=O)Nc1cc2c(Nc3ccc(F)c(Cl)c3)ncnc2cc1O[C@H]1CCOC1 + C=CC(=O)N1CCN(c2nc(=O)n(-c3c(C)ccnc3C(C)C)c3nc(-c4c(O)cccc4F)c(F)cc23)C(C)C1
IC50 (second compound 0.1 µM): < 0.316 nM | IC50 (second compound 0.316 µM): > 100 nM | IC50 (second compound 1 µM): > 100 nM | IC50 (second compound 3.16 µM): > 100 nM | IC50 (second compound 10 µM): > 100 nM | viability, T/C (second compound 0.1 µM, first compound 0.000316 µM): 86.9% | viability, T/C (second compound 0.1 µM, first compound 0.001 µM): 95.8% | viability, T/C (second compound 0.1 µM, first compound 0.00316 µM): 102% | viability, T/C (second compound 0.1 µM, first compound 0.01 µM): 101% | viability, T/C [1]: 110% | viability, T/C [2]: 109% | viability, T/C (second compound 0.316 µM, first compound 0.000316 µM): 87.5% | viability, T/C (second compound 0.316 µM, first compound 0.001 µM): 94.9% | viability, T/C (second compound 0.316 µM, first compound 0.00316 µM): 97% | viability, T/C (second compound 0.316 µM, first compound 0.01 µM): 106% | viability, T/C [7]: 116% | viability, T/C [8]: 115% | viability, T/C (second compound 1 µM, first compound 0.000316 µM): 85.5% | viability, T/C (second compound 1 µM, first compound 0.001 µM): 97.5% | viability, T/C (second compound 1 µM, first compound 0.00316 µM): 92.8% | viability, T/C (second compound 1 µM, first compound 0.01 µM): 101% | viability, T/C [13]: 115% | viability, T/C [14]: 103% | viability, T/C (second compound 3.16 µM, first compound 0.000316 µM): 82.6% | viability, T/C (second compound 3.16 µM, first compound 0.001 µM): 86.9% | viability, T/C (second compound 3.16 µM, first compound 0.00316 µM): 91.8% | viability, T/C (second compound 3.16 µM, first compound 0.01 µM): 96.7% | viability, T/C [19]: 99.2% | viability, T/C [20]: 96.7% | viability, T/C (second compound 10 µM, first compound 0.000316 µM): 87.2% | viability, T/C (second compound 10 µM, first compound 0.001 µM): 100% | viability, T/C (second compound 10 µM, first compound 0.00316 µM): 99.6% | viability, T/C (second compound 10 µM, first compound 0.01 µM): 105% | viability, T/C [25]: 111% | viability, T/C [26]: 115%
